The values below are quoted from earlier work in publication PMC9311539, “Antibacterial Activity against Clinical Isolates and In Vivo Efficacy of Coralmycins” (Antibiotics, 2022).

Details of data set [1]: method as in PMID 34123255. As to conditions: cited from earlier work.
In data set [2] the test system is E. coli ATCC 25922. Also noted: method as in PMID 34123255. As to conditions: cited from earlier work.
The test system of data set [3] is E. coli ATCC 25922. Also noted: method as in PMID 34123255. As to conditions: 37.5 mg/kg/day; cited from earlier work.

Converted amounts (≈) assume the structure as drawn. Read-outs that look alike come from different tables or passages of the source.

For the molecule `CC(C)Oc1c(NC(=O)c2ccc(NC(=O)C(CC(N)=O)NC(=O)c3ccc(NC(=O)c4ccc(C#N)cc4)cc3)cc2)ccc(C(=O)Nc2ccc(C(=O)O)cc2)c1O` (centres unmarked) [CN-DM-861], in data set [1] (after s.c. administration), the “detection in tissues (thigh, kidney, lung)” value is listed as “well detected”. Further, in data set [1] (i.v. 5 mg/kg), the AUC (commonly concentration integrated over time) is on record as “approximately 2 μg·h/mL”; the T1/2 result is “approximately 1 h”; the Vdss (as a rule, a proportionality between amount in the body and measured concentration, not a real space) is on record as 3.5 L/kg. In addition, the bioavailability – broadly, the share of a dose that reaches the circulation, judged against a reference dose that is usually intravenous – in data set [1] (reported) was 25%. Further, the AUC/MIC ratio in data set [1] (s.c. 5 mg/kg, MIC against E. coli ATCC 25922) is 159.5. Moreover, in data set [1] (s.c. 5 mg/kg), the AUC is reported as 517 ng·h/mL, the Cmax (commonly the highest concentration seen after dosing) was 128 ng/mL and the time to peak (Tmax) (commonly the time at which the peak concentration occurs) is 1.7 h. Moreover, the MIC (usually the smallest concentration in the dilution series that meets the test's criterion for growth inhibition) with E. coli ATCC 25922 [2] is 0.02 µg/mL (≈ 0.0246 µM). In addition, the “in vivo effect in three mouse models” value in the data set with E. coli ATCC 25922 [3] is recorded as “potent bactericidal effects”.
